Experimental data published in patent publication US20240209028A1, “CNP COMPOUNDS” (priority 2022, published 2024).
Read-outs that look alike come from different tables or passages of the source. Starred links: 1 amine or outer side, 2 acyl side, 3 side chain; linkers in the order of their positions; H or OH if unused. Positions of bridges follow the written chain, without caps; N, C: chain ends. Residues, ends and D or L forms follow the SMILES beside them. *: point of attachment. C18 diacid = O=C(O)CCCCCCCCCCCCCCCCC(=O)*; γGlu = O=C(O)[C@H](CCC(=O)[*:2])N[*:1]; AEEA = NCCOCCOCC(=O)O

Assays:
[1] = PK after i.v. and s.c. administration to Göttingen minipig; settings: female, in vivo, Göttingen Minipig; for clearance: read-out: CL (ml/hr/kg), Intravenous PK (converted); for bioavailability: s.c. bioavailability, read-out: F (%), Subcutaneous PK
Method in brief: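 Female Göttingen minipigs (6-12 months, ~22 kg) and domestic LYD pigs (4-5 months, ~80 kg) given CNP compounds i.v. (30-60 or 15-43 nmol/kg) or s.c. neck (55-62 or 20-30 nmol/kg) via catheter/pen. EDTA plasma sampled up to 14 days, CNP and cGMP by LC-MS; non-compartmental PK, F from dose-normalized AUC s.c./i.v.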

neprilysin (NEP) = neprilysin (NEP) (Homo sapiens, UniProt P08473); assay: In vitro neprilysin stability; settings: recombinant human neprilysin (rhNEP), pH 7.4
Protocol: Therefore, an in vitro neprilysin stability assay was set up to test the neprilysin mediated degradation of selected CNP compounds.
Procedure: In short, the assay buffer consisted of PBS-buffer (pH 7.4, ThermoFisher Scientific) with a final concentration of 0.005% v/v tween 20 (Sigma-Aldrich). Recombinant human neprilysin (rhNEP; R&D Systems) and the CNP compounds were dissolved in assay buffer. Native CNP22 (0065, Chem. 1) was included as positive control on each day of incubation. Initially, the CNP compound (the final concentration was 1000 nM) was pre-incubated in assay buffer for 10 min at 37° C. The assay was started by adding either rhNEP (final concentration was 2 μg protein per mL) or assay buffer (adsorption experiment) and the incubation was conducted at 37° C. […] The mixture was centrifuged at 13000 rpm at 4° C. for 20 minutes. After centrifugation, one volume of supernatant was mixed with one volume of Milli-Q water.
Analysis by LCMS: The mixture was analysed by LCMS using an Acquity UPLC Peptide CSH C18 analytical column from Waters (130 Å, 1.7 μm, 1*50 mm) operated at 60° C. A gradient elution was conducted with a Nexera UHPLC system (Shimadzu) using mobile phase A (consisting of Milli-Q water with 0.1% formic acid) and mobile phase B (consisting of acetonitrile with 0.1% formic acid). The flow was 0.3 ml/min. A zenoTOF 7600 mass spectrometer (Sciex) was used as detector and operated in positive electrospray ionisation mode. Data was recorded in full scan mode (m/z 300-1700).
Calibration curves were prepared in assay buffer and treated as study samples. These samples were used for calculating the concentration of the relevant CNP compound in the in vitro samples. Quality control samples were included. For at least 75% of the standards and QCs, the deviation between nominal and calculated concentration was below 20%.
All incubations were conducted in duplicate. Data was reported as percent remaining at 90 min (based on calculated concentrations) compared to the average concentration in the 0.5-minute time point samples.

[2] = iv, i.v., read-out: T½, iv (converted)
[3] = sc, s.c., read-out: T½, sc (converted)

Chain of neprilysin (NEP) (P08473 whole entry): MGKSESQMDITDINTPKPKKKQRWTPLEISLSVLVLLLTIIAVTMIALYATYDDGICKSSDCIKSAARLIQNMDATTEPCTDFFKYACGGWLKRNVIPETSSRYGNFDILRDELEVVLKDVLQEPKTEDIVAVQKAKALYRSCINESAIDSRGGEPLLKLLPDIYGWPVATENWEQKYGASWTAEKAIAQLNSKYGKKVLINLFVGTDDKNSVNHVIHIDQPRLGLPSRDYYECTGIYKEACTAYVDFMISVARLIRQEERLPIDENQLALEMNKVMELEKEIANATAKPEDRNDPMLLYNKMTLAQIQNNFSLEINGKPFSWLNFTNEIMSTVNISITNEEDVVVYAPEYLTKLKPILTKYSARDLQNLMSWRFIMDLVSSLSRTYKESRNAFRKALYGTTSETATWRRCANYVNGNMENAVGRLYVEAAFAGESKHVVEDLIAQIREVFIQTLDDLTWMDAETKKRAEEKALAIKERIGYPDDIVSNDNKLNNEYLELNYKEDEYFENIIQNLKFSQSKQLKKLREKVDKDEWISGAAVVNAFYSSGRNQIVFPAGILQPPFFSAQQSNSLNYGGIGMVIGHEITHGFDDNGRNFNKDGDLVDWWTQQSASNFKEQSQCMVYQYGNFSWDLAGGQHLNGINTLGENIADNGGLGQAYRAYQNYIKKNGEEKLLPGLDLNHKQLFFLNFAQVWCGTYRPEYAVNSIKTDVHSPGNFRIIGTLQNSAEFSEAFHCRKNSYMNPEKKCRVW

SMILES | clearance ([1]; iv, i.v.) [mL/h/kg] | half-life [1, 2] [h] | bioavailability ([1]; sc) [%] | half-life [1, 3] [h] | remaining at 1.5 h, 1000 nM (neprilysin (NEP)) [%]
CC[C@H](C)[C@@H]1NC(=O)[C@H](CCCNC(=N)N)NC(=O)[C@H](CC(=O)O)NC(=O)[C@H](CC(C)C)NC(=O)[C@@H]2CCCN2C(=O)[C@H](CC(C)C)NC(=O)CNC(=O)[C@H](Cc2ccccc2)NC(=O)[C@@H](NC(=O)CNC(=O)[C@H](CCC(N)=O)NC(=O)[C@H](CO)NC(=O)[C@H](CC(C)C)NC(=O)CNC(=O)[C@H](CCCCN)NC(=O)[C@H](CCCCN)NC(=O)[C@H](CCC(N)=O)NC(=O)[C@H](C)NC(=O)CNC(=O)[C@H](CCCCN)NC(=O)[C@H](Cc2ccc(O)cc2)NC(=O)COCCOCCNC(=O)COCCOCCNC(=O)COCCOCCNC(=O)COCCOCCNC(=O)CC[C@H](NC(=O)CC[C@H](NC(=O)CC[C@H](NC(=O)CCCCCCCCCCCCCCCCC(=O)O)C(=O)O)C(=O)O)C(=O)O)CSSC[C@@H](C(=O)O)NC(=O)CNC(=O)[C@H](CC(C)C)NC(=O)CNC(=O)[C@H](CO)NC(=O)[C@H](CC(C)C)NC(=O)[C@H](CO)NC(=O)CNC1=O [Compound 9480] ({C18 diacid-γGlu-γGlu-γGlu-AEEA-AEEA-AEEA-AEEA}-YKGAQKKGLSQGCFGLPLDRIGSLSGLGC-OH; disulfide 13-29) | 1.13 | 74 | 87 | 67 | 98.3
CC[C@H](C)[C@@H]1NC(=O)[C@H](CCCNC(=N)N)NC(=O)[C@H](CC(=O)O)NC(=O)[C@H](CC(C)C)NC(=O)[C@@H]2CCCN2C(=O)[C@H](CC(C)C)NC(=O)CNC(=O)[C@H](Cc2ccccc2)NC(=O)[C@@H](NC(=O)CNC(=O)[C@H](CO)NC(=O)[C@H](CO)NC(=O)[C@H](CC(C)C)NC(=O)CNC(=O)[C@H](CCCCN)NC(=O)[C@H](CCCCN)NC(=O)[C@H](CCC(N)=O)NC(=O)[C@H](C)NC(=O)CNC(=O)[C@H](CCCCN)NC(=O)[C@H](Cc2ccc(O)cc2)NC(=O)[C@H](CCCCN)NC(=O)[C@H](CCCNC(=N)N)NC(=O)[C@H](C)NC(=O)[C@H](CCC(N)=O)NC(=O)[C@@H]2CCCN2C(=O)[C@H](Cc2c[nH]cn2)NC(=O)[C@H](CCC(=O)O)NC(=O)[C@H](CCC(N)=O)NC(=O)CC[C@H](NC(=O)CC[C@H](NC(=O)CC[C@H](NC(=O)CC[C@H](NC(=O)CC[C@H](NC(=O)CCCCCCCCCCCCCCCCC(=O)O)C(=O)O)C(=O)O)C(=O)O)C(=O)O)C(=O)O)CSSC[C@@H](C(=O)O)NC(=O)CNC(=O)[C@H](CC(C)C)NC(=O)CNC(=O)[C@H](CO)NC(=O)[C@H](CC(C)C)NC(=O)[C@H](CO)NC(=O)CNC1=O [Compound 9482] ({C18 diacid-γGlu-γGlu-γGlu-γGlu-γGlu}-QEHPQARKYKGAQKKGLSSGCFGLPLDRIGSLSGLGC-OH; disulfide 21-37) | 1.07 | 89 | 89 | 84 | 96.3
